Laboratory results published in paper PMC9287381, “Structure-based rational design of an enhanced fluorogen-activating protein for fluorogens based on GFP chromophore” (Communications Biology, 2022).
Where a chain is given by its changes, count along the chain named.

Columns and labels:
Assay in all cases: spectrofluorometric titration of protein with chromophore
pFAST = biological target: T1, pFAST; type: binding, Halorhodospira halophila; settings: 0.10 µM protein, 25 °C
T1 construct: gene pyp; multipoint directed-evolution variant of FAST (itself engineered PYP); E. coli BL21(DE3)
Source text: spectrofluorometric titration of protein with chromophore on pFAST

[1] = biological target: T2, FAST (Fluorescence-Activating and absorption-Shifting Tag) (Halorhodospira halophila, UniProt P16113, R52E/C69G/Y94W/T95M/F96I/D97P/Y98T/Q99S/M100R/T101G); type: binding; settings: 0.10 µM protein, 25 °C
T2 construct: gene pyp; engineered full-length PYP variant (~14 kDa); E. coli BL21(DE3)
T2 sequence (P16113 1-125 R52E/C69G/Y94W/T95M/F96I/D97P/Y98T/Q99S/M100R/T101G): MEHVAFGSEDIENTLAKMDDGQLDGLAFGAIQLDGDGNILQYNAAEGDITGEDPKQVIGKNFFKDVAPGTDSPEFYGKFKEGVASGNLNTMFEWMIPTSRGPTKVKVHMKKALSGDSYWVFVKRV
Source text: (§1) spectrofluorometric titration of protein with chromophore on FAST (Fluorescence-Activating and absorption-Shifting Tag) | studied their properties in complex with N871b fluorogen

[2] = biological target: T3, FAST (Fluorescence-Activating and absorption-Shifting Tag) (Halorhodospira halophila, UniProt P16113, R52E/D65R/C69G/Y94W/T95M/F96I/D97P/Y98T/Q99S/M100R/T101G); type: binding; settings: 0.10 µM protein, 25 °C
T3 construct: gene pyp; engineered full-length PYP variant (~14 kDa); E. coli BL21(DE3)
T3 sequence (P16113 1-125 R52E/D65R/C69G/Y94W/T95M/F96I/D97P/Y98T/Q99S/M100R/T101G): T2 sequence (P16113 1-125 R52E/C69G/Y94W/T95M/F96I/D97P/Y98T/Q99S/M100R/T101G) with D65R
Source text: as §1

[3] = biological target: T4, FAST (Fluorescence-Activating and absorption-Shifting Tag) (Halorhodospira halophila, UniProt P16113, C69G/Y94W/T95M/F96I/D97P/Y98T/Q99K/M100R/T101G); type: binding; settings: 0.10 µM protein, 25 °C
T4 construct: gene pyp; engineered full-length PYP variant (~14 kDa); E. coli BL21(DE3)
T4 sequence (P16113 1-125 C69G/Y94W/T95M/F96I/D97P/Y98T/Q99K/M100R/T101G): T2 sequence (P16113 1-125 R52E/C69G/Y94W/T95M/F96I/D97P/Y98T/Q99S/M100R/T101G) with E52R, S99K

[4] = biological target: T5, FAST (Fluorescence-Activating and absorption-Shifting Tag) (Halorhodospira halophila, UniProt P16113, C69G/Y94W/T95M/F96I/D97P/Y98T/Q99R/M100R/T101G); type: binding; settings: 0.10 µM protein, 25 °C
T5 construct: gene pyp; engineered full-length PYP variant (~14 kDa); E. coli BL21(DE3)
T5 sequence (P16113 1-125 C69G/Y94W/T95M/F96I/D97P/Y98T/Q99R/M100R/T101G): T2 sequence (P16113 1-125 R52E/C69G/Y94W/T95M/F96I/D97P/Y98T/Q99S/M100R/T101G) with E52R, S99R

[5] = biological target: T6, FAST (Fluorescence-Activating and absorption-Shifting Tag) (Halorhodospira halophila, UniProt P16113, D65K/C69G/Y94W/T95M/F96I/D97P/Y98T/Q99S/M100R/T101G); type: binding; settings: 0.10 µM protein, 25 °C
T6 construct: gene pyp; engineered full-length PYP variant (~14 kDa); E. coli BL21(DE3)
T6 sequence (P16113 1-125 D65K/C69G/Y94W/T95M/F96I/D97P/Y98T/Q99S/M100R/T101G): T2 sequence (P16113 1-125 R52E/C69G/Y94W/T95M/F96I/D97P/Y98T/Q99S/M100R/T101G) with E52R, D65K
Source text: (§2) spectrofluorometric titration of protein with chromophore on FAST (Fluorescence-Activating and absorption-Shifting Tag) | all the S99 mutants, P73S, P68K, D65K

[6] = biological target: T7, FAST (Fluorescence-Activating and absorption-Shifting Tag) (Halorhodospira halophila, UniProt P16113, C69G/P73S/Y94W/T95M/F96I/D97P/Y98T/Q99S/M100R/T101G); type: binding; settings: 0.10 µM protein, 25 °C
T7 construct: gene pyp; engineered full-length PYP variant (~14 kDa); E. coli BL21(DE3)
T7 sequence (P16113 1-125 C69G/P73S/Y94W/T95M/F96I/D97P/Y98T/Q99S/M100R/T101G): T2 sequence (P16113 1-125 R52E/C69G/Y94W/T95M/F96I/D97P/Y98T/Q99S/M100R/T101G) with E52R, P73S
Source text: as §2

[7] = biological target: T8, FAST (Fluorescence-Activating and absorption-Shifting Tag) (Halorhodospira halophila, UniProt P16113, P68K/C69G/Y94W/T95M/F96I/D97P/Y98T/Q99S/M100R/T101G); type: binding; settings: 0.10 µM protein, 25 °C
T8 construct: gene pyp; engineered full-length PYP variant (~14 kDa); E. coli BL21(DE3)
T8 sequence (P16113 1-125 P68K/C69G/Y94W/T95M/F96I/D97P/Y98T/Q99S/M100R/T101G): T2 sequence (P16113 1-125 R52E/C69G/Y94W/T95M/F96I/D97P/Y98T/Q99S/M100R/T101G) with E52R, P68K
Source text: as §2

[8] = biological target: T9, FAST (Fluorescence-Activating and absorption-Shifting Tag) (Halorhodospira halophila, UniProt P16113, C69G/Y94W/T95M/F96I/D97P/Y98T/Q99E/M100R/T101G); type: binding; settings: 0.10 µM protein, 25 °C
T9 construct: gene pyp; engineered full-length PYP variant (~14 kDa); E. coli BL21(DE3)
T9 sequence (P16113 1-125 C69G/Y94W/T95M/F96I/D97P/Y98T/Q99E/M100R/T101G): T2 sequence (P16113 1-125 R52E/C69G/Y94W/T95M/F96I/D97P/Y98T/Q99S/M100R/T101G) with E52R, S99E

[9] = biological target: T10, FAST (Fluorescence-Activating and absorption-Shifting Tag) (Halorhodospira halophila, UniProt P16113, R52L/C69G/Y94W/T95M/F96I/D97P/Y98T/Q99S/M100R/T101G); type: binding; settings: 0.10 µM protein, 25 °C
T10 construct: gene pyp; engineered full-length PYP variant (~14 kDa); E. coli BL21(DE3)
T10 sequence (P16113 1-125 R52L/C69G/Y94W/T95M/F96I/D97P/Y98T/Q99S/M100R/T101G): T2 sequence (P16113 1-125 R52E/C69G/Y94W/T95M/F96I/D97P/Y98T/Q99S/M100R/T101G) with E52L
Source text: (§3) spectrofluorometric titration of protein with chromophore on FAST (Fluorescence-Activating and absorption-Shifting Tag)

[10] = biological target: T11, FAST (Fluorescence-Activating and absorption-Shifting Tag) (Halorhodospira halophila, UniProt P16113, C69G/D97P/F96I/M100R/Q99S/R52Y/T101G/T95M/Y94W/Y98T); type: binding
T11 construct: gene pyp; engineered full-length PYP variant (~14 kDa); E. coli BL21(DE3)
T11 sequence (P16113 1-125 R52Y/C69G/Y94W/T95M/F96I/D97P/Y98T/Q99S/M100R/T101G): T2 sequence (P16113 1-125 R52E/C69G/Y94W/T95M/F96I/D97P/Y98T/Q99S/M100R/T101G) with E52Y
Source text: as §3

[11] = biological target: T12, FAST (Fluorescence-Activating and absorption-Shifting Tag) (Halorhodospira halophila, UniProt P16113, C69G/Y94W/T95M/F96I/D97P/Y98T/Q99S/M100R/T101G); type: binding; settings: 0.10 µM protein, 25 °C
T12 construct: gene pyp; engineered full-length PYP variant (~14 kDa); E. coli BL21(DE3)
T12 sequence (P16113 1-125 C69G/Y94W/T95M/F96I/D97P/Y98T/Q99S/M100R/T101G): T2 sequence (P16113 1-125 R52E/C69G/Y94W/T95M/F96I/D97P/Y98T/Q99S/M100R/T101G) with E52R
Source text: as §3

[12] = biological target: T13, FAST (Fluorescence-Activating and absorption-Shifting Tag) (Halorhodospira halophila, UniProt P16113, R52Y/C69G/Y94W/T95M/F96I/D97P/Y98T/Q99S/M100R/T101G); type: binding; settings: 0.10 µM protein, 25 °C
T13 construct: gene pyp; engineered full-length PYP variant (~14 kDa); E. coli BL21(DE3)
T13 sequence (P16113 1-125 R52Y/C69G/Y94W/T95M/F96I/D97P/Y98T/Q99S/M100R/T101G): T2 sequence (P16113 1-125 R52E/C69G/Y94W/T95M/F96I/D97P/Y98T/Q99S/M100R/T101G) with E52Y
Source text: as §3

SMILES	Kd (pFAST) [µM]	Kd [1] [nM]	Kd [2] [nM]	Kd [3] [nM]	Kd [4] [nM]	Kd [5] [nM]	Kd [6] [nM]	Kd [7] [nM]	Kd [8] [nM]	Kd [9] [µM]	Kd [10] [µM]	Kd [11] [µM]	Kd [12] [µM]
COc1cc(O)ccc1/C=C1N=C(/C=C/c2ccncc2)N(C)C\1=O [N871b]	0.04 ± 0.002	1300 ± 70	1360 ± 220	270 ± 10	240 ± 10	250 ± 10	170 ± 10	220 ± 10	210 ± 10	0.27 ± 0.01	0.24 ± 0.02	0.33 ± 0.01	
COc1cc(O)ccc1/C=C1N=C(/C=C/c2ccccn2)N(C)C\1=O [MCL.1f]	0.029 ± 0.005									0.39 ± 0.1	0.31 ± 0.05	0.27 ± 0.04	
COc1cc(O)ccc1/C=C1N=C(/C=C/c2cccs2)N(C)C\1=O [MCL.1b]	0.023 ± 0.003									0.44 ± 0.2	0.27 ± 0.06	0.2 ± 0.04	
COc1cc(O)ccc1/C=C1\N=C2C=C(/C=C/c3ccncc3)C=CN2C1=O [MCL.3a]	0.025 ± 0.002									0.06 ± 0.01		0.08 ± 0.01	0.11 ± 0.02
